Experimental data published in PubChem BioAssay (NCI).
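Values below derive from 48-hour exposures of cells grown in 96-well plates, with endpoints linearly interpolated between the two concentrations bracketing the appropriate inhibition level. Abbreviation: GI50, concentration required for 50% inhibition of growth. The concentration for full growth arrest is given as TGI.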

Legend:
Assay in all cases: NCI tumour cell line growth inhibition, 48 h
[1] = test system: SK-MEL-2 melanoma
[2] = test system: HCT-116 colon
[3] = test system: HOP-92 NSCLC
[4] = test system: HOP-62 NSCLC
[5] = test system: NCI-H522 lung
[6] = test system: SW-620 colon
[7] = test system: SK-OV-3 ovarian
[8] = test system: NCI-H23 lung
[9] = test system: RXF 393 renal
[10] = test system: PC-3 prostate
[11] = test system: SK-MEL-5 melanoma
[12] = test system: LOX IMVI melanoma
[13] = test system: UACC-62 melanoma
[14] = test system: OVCAR-8 ovarian
[15] = test system: EKVX NSCLC
[16] = test system: OVCAR-3 ovarian
[17] = test system: HCT-15 colon
[18] = test system: UO-31 renal
[19] = test system: A498 renal
[20] = test system: MCF7 breast
[21] = test system: T-47D breast
[22] = test system: SK-MEL-28 melanoma
[23] = test system: SF-539 CNS
[24] = test system: A549 NSCLC
[25] = test system: MOLT-4 leukemia
[26] = test system: HL-60(TB) leukemia
[27] = test system: OVCAR-5 ovarian
[28] = test system: CCRF-CEM leukemia
[29] = test system: IGROV1 ovarian
[30] = test system: NCI/ADR-RES ovarian
[31] = test system: SNB-19 CNS
[32] = test system: SR leukemia
[33] = test system: HCC-2998 colon
[34] = test system: SN12C renal
[35] = test system: HT29 colon
[36] = test system: KM12 colon
[37] = test system: CAKI-1 renal
[38] = test system: M14 melanoma
[39] = test system: NCI-H460 lung
[40] = test system: 786-0 renal
[41] = test system: SF-268 CNS
[42] = test system: SNB-75 CNS
[43] = test system: SF-295 CNS
[44] = test system: K-562 leukemia
[45] = test system: RPMI-8226 leukemia
[46] = test system: MDA-MB-435
[47] = test system: DU-145 prostate
[48] = test system: BT-549 breast
[49] = test system: MDA-MB-231 breast
[50] = test system: U251 CNS
[51] = test system: COLO 205 colon
[52] = test system: NCI-H226 lung
[53] = test system: HS 578T breast
[54] = test system: MALME-3M melanoma
[55] = test system: OVCAR-4 ovarian
[56] = test system: TK-10 renal
[57] = test system: UACC-257 melanoma
[58] = test system: ACHN renal

Structure (SMILES): CSc1nc2c(c(=O)n1C)C(c1ccccc1)C1=C(N2)/C(=C/c2ccccc2)CCC1 (stereo unspecified)
- GI50 [1]: 9.48 µM
- TGI [1]: 42.6 µM
- GI50 [2]: 3.41 µM
- TGI [2]: 14.3 µM
- GI50 [3]: 36.6 µM
- TGI [3]: > 100 µM
- GI50 [4]: 20 µM
- TGI [4]: > 100 µM
- GI50 [5]: 5.93 µM
- TGI [5]: > 100 µM
- GI50 [6]: 2.53 µM
- TGI [6]: 6.81 µM
- GI50 [7]: 25.1 µM
- TGI [7]: 78.7 µM
- GI50 [8]: 7.1 µM
- TGI [8]: > 100 µM
- GI50 [9]: 2.35 µM
- TGI [9]: 6.21 µM
- GI50 [10]: 7.11 µM
- TGI [10]: > 100 µM
- GI50 [11]: 3.58 µM
- TGI [11]: > 100 µM
- GI50 [12]: 3.01 µM
- TGI [12]: 12.8 µM
- GI50 [13]: 7.95 µM
- TGI [13]: > 100 µM
- GI50 [14]: 3.97 µM
- TGI [14]: > 100 µM
- GI50 [15]: 24.2 µM
- TGI [15]: > 100 µM
- GI50 [16]: 4.41 µM
- TGI [16]: > 100 µM
- GI50 [17]: 4.1 µM
- TGI [17]: > 100 µM
- GI50 [18]: 1.69 µM
- TGI [18]: 30.7 µM
- GI50 [19]: 16.8 µM
- TGI [19]: 88.4 µM
- GI50 [20]: 7.72 µM
- TGI [20]: > 100 µM
- GI50 [21]: 4.15 µM
- TGI [21]: > 100 µM
- GI50 [22]: > 100 µM
- TGI [22]: > 100 µM
- GI50 [23]: 9.98 µM
- TGI [23]: 81.5 µM
- GI50 [24]: > 100 µM
- TGI [24]: > 100 µM
- GI50 [25]: 4.9 µM
- TGI [25]: > 100 µM
- GI50 [26]: 0.721 µM
- TGI [26]: 48.4 µM
- GI50 [27]: 71.7 µM
- TGI [27]: > 100 µM
- GI50 [28]: 4.62 µM
- TGI [28]: > 100 µM
- GI50 [29]: 13.6 µM
- TGI [29]: > 100 µM
- GI50 [30]: 4.07 µM
- TGI [30]: > 100 µM
- GI50 [31]: 22.4 µM
- TGI [31]: > 100 µM
- GI50 [32]: 1.89 µM
- TGI [32]: > 100 µM
- GI50 [33]: > 100 µM
- TGI [33]: > 100 µM
- GI50 [34]: 53 µM
- TGI [34]: > 100 µM
- GI50 [35]: 3.58 µM
- TGI [35]: 71 µM
- GI50 [36]: 18.2 µM
- TGI [36]: > 100 µM
- GI50 [37]: 69 µM
- TGI [37]: > 100 µM
- GI50 [38]: 6.56 µM
- TGI [38]: > 100 µM
- GI50 [39]: 9.87 µM
- TGI [39]: > 100 µM
- GI50 [40]: 11.7 µM
- TGI [40]: 56.4 µM
- GI50 [41]: 10.7 µM
- TGI [41]: > 100 µM
- GI50 [42]: 11.3 µM
- TGI [42]: 29.7 µM
- GI50 [43]: 4.67 µM
- TGI [43]: 34 µM
- GI50 [44]: 2.86 µM
- TGI [44]: > 100 µM
- GI50 [45]: 5.31 µM
- TGI [45]: > 100 µM
- GI50 [46]: 3.99 µM
- TGI [46]: > 100 µM
- GI50 [47]: 8.02 µM
- TGI [47]: > 100 µM
- GI50 [48]: 11.9 µM
- TGI [48]: > 100 µM
- GI50 [49]: 17.4 µM
- TGI [49]: > 100 µM
- GI50 [50]: 3.99 µM
- TGI [50]: 34.9 µM
- GI50 [51]: 10.3 µM
- TGI [51]: > 100 µM
- GI50 [52]: 18.4 µM
- TGI [52]: > 100 µM
- GI50 [53]: 10.2 µM
- TGI [53]: 93.8 µM
- GI50 [54]: 5.87 µM
- TGI [54]: > 100 µM
- GI50 [55]: 30.8 µM
- TGI [55]: > 100 µM
- GI50 [56]: 20.9 µM
- TGI [56]: > 100 µM
- GI50 [57]: 6.63 µM
- TGI [57]: > 100 µM
- GI50 [58]: 3.56 µM
- TGI [58]: 50.5 µM
